Assay results: the supplement of paper PMC10627819

Assays:
[1] = test system: S. pneumoniae D39V; test: fitness (endpoint OD595 vs no drug) (fraction); higher = more growth
In short: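 Cultures at OD595 0.01 were dispensed into 384-well plates in TSB, LB Lennox or CY and incubated at 37 °C. Every 30 min for 14 h, OD595 was read and corrected by the first reading. Fitness is the optical density at entry into stationary phase relative to the robust mean of no-drug control wells, capped at 1.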

[2] = test system: B. subtilis 168; test: Bliss interaction score (quartile over a dose matrix) (fitness difference); higher = more antagonism (negative = synergy)
In short: (§1)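 The Bliss score is observed minus expected fitness, where expected fitness is the product of the single-drug fitness values inferred from the combination data. Fitness is the OD595 at the onset of stationary phase over the plate's robust no-drug mean, capped at 1. Scores are summarised by quartiles over technical, biological and donor/recipient replicates.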

[3] = test system: S. aureus DSM 20231; test: as above
In short: as §1

[4] = test system: S. pneumoniae D39V; test: as above
In short: as §1

[5] = test system: S. aureus Newman; test: as above
In short: as §1
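Wherever Bliss interaction score (quartile over a dose matrix) is given: first quartile when negative (synergy) and third quartile when positive (antagonism).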

CCCCCCCCCC(=O)N[C@@H](Cc1c[nH]c2ccccc12)C(=O)N[C@H](CC(N)=O)C(=O)N[C@@H](CC(=O)O)C(=O)N[C@@H]1C(=O)NCC(=O)N[C@@H](CCCN)C(=O)N[C@@H](CC(=O)O)C(=O)N[C@H](C)C(=O)N[C@@H](CC(=O)O)C(=O)NCC(=O)N[C@H](CO)C(=O)N[C@@H]([C@H](C)CC(=O)O)C(=O)N[C@@H](CC(=O)c2ccccc2N)C(=O)O[C@@H]1C [Daptomycin] + CO[C@H]1/C=C/O[C@@]2(C)Oc3c(C)c(O)c4c(O)c(c(/C=N/N5CCN(C)CC5)c(O)c4c3C2=O)NC(=O)/C(C)=C\C=C\[C@H](C)[C@H](O)[C@@H](C)[C@@H](O)[C@@H](C)[C@H](OC(C)=O)[C@@H]1C [Rifampicin]
fitness, [1]
Conditions | first compound 1 µg/mL | first compound 2 µg/mL | first compound 4 µg/mL
partner 0.025 µg/mL | 0.978 | ≥ 1 | ≥ 1
partner 0.05 µg/mL | 0.823 | 0.864 | 0.926
partner 0.1 µg/mL | 0.262 | 0.271 | –

[1], partner 0.2 µg/mL, one replicate
Conditions | fitness
first compound 1 µg/mL | 0
first compound 2 µg/mL | 0
first compound 4 µg/mL | 0

Conditions | Bliss interaction score
[2] | -0.0667
[3] | -0.0427
[4] | 0.104
[5] | 0.0195

CCCCCCCCCC(=O)N[C@@H](Cc1c[nH]c2ccccc12)C(=O)N[C@H](CC(N)=O)C(=O)N[C@@H](CC(=O)O)C(=O)N[C@@H]1C(=O)NCC(=O)N[C@@H](CCCN)C(=O)N[C@@H](CC(=O)O)C(=O)N[C@H](C)C(=O)N[C@@H](CC(=O)O)C(=O)NCC(=O)N[C@H](CO)C(=O)N[C@@H]([C@H](C)CC(=O)O)C(=O)N[C@@H](CC(=O)c2ccccc2N)C(=O)O[C@@H]1C [Daptomycin] + C[C@@H](O)[C@H]1C(=O)N2C(C(=O)O)=C(SCCNC=N)C[C@H]12 [Imipenem]
fitness, [1]
Conditions | partner 0.005 µg/mL | partner 0.0065 µg/mL | partner 0.01 µg/mL | partner 0.013 µg/mL | partner 0.02 µg/mL | partner 0.026 µg/mL
first compound 1 µg/mL | 0.962 | 0.886 | 0.986 | 0.808 | 0.935 | 0.716
first compound 2 µg/mL | 0.979 | 0.895 | 0.931 | 0.837 | 0.989 | 0.843
first compound 4 µg/mL | 0.902 | 0.93 | 0.884 | 0.947 | 0.897 | 0.887

Conditions | Bliss interaction score
[2] | -0.0985
[3] | 0.0417
[4] | 0.0763
[5] | 0.0265

CCCCCCCCCC(=O)N[C@@H](Cc1c[nH]c2ccccc12)C(=O)N[C@H](CC(N)=O)C(=O)N[C@@H](CC(=O)O)C(=O)N[C@@H]1C(=O)NCC(=O)N[C@@H](CCCN)C(=O)N[C@@H](CC(=O)O)C(=O)N[C@H](C)C(=O)N[C@@H](CC(=O)O)C(=O)NCC(=O)N[C@H](CO)C(=O)N[C@@H]([C@H](C)CC(=O)O)C(=O)N[C@@H](CC(=O)c2ccccc2N)C(=O)O[C@@H]1C [Daptomycin] + Clc1ccc(COC(Cn2ccnc2)c2ccc(Cl)cc2Cl)c(Cl)c1 [Miconazole]
fitness, [1]
Conditions | partner 1.073 µg/mL | partner 1.25 µg/mL | partner 2.145 µg/mL | partner 2.5 µg/mL | partner 4.29 µg/mL | partner 5 µg/mL
first compound 1 µg/mL | 0.962 | 0.922 | 0.967 | 0.913 | 0.841 | 0.898
first compound 2 µg/mL | 0.984 | 0.888 | 0.981 | 0.896 | 0.881 | 0.86
first compound 4 µg/mL | ≥ 1 | 0.847 | ≥ 1 | 0.813 | 0.882 | 0.836

Conditions | Bliss interaction score
[2] | 0.0988
[3] | -0.0305
[4] | 0.0797
[5] | -0.0424

CCCCCCCCCC(=O)N[C@@H](Cc1c[nH]c2ccccc12)C(=O)N[C@H](CC(N)=O)C(=O)N[C@@H](CC(=O)O)C(=O)N[C@@H]1C(=O)NCC(=O)N[C@@H](CCCN)C(=O)N[C@@H](CC(=O)O)C(=O)N[C@H](C)C(=O)N[C@@H](CC(=O)O)C(=O)NCC(=O)N[C@H](CO)C(=O)N[C@@H]([C@H](C)CC(=O)O)C(=O)N[C@@H](CC(=O)c2ccccc2N)C(=O)O[C@@H]1C [Daptomycin] + O=C1CN(/N=C/c2ccc([N+](=O)[O-])o2)C(=O)N1 [Nitrofurantoin]
fitness, [1]
Conditions | partner 1.285 µg/mL | partner 2 µg/mL | partner 2.57 µg/mL | partner 4 µg/mL | partner 8 µg/mL
first compound 1 µg/mL | 0.981 | 0.883 | 0.946 | 0.788 | 0.338
first compound 2 µg/mL | 0.943 | 0.85 | 0.904 | 0.763 | 0.327
first compound 4 µg/mL | 0.948 | 0.808 | 0.948 | 0.704 | 0.34

[1], partner 5.14 µg/mL, one replicate
Conditions | fitness
first compound 1 µg/mL | 0.839
first compound 2 µg/mL | 0.82
first compound 4 µg/mL | 0.883

Conditions | Bliss interaction score
[2] | -0.0871
[3] | 0.0921
[4] | 0.0606
[5] | 0.0519

C[C@H]1COc2c(N3CCN(C)CC3)c(F)cc3c(=O)c(C(=O)O)cn1c23 [Levofloxacin] + C/C(=C\C(=O)OCCCCCCCCC(=O)O)C[C@@H]1OC[C@H](C[C@@H]2O[C@H]2[C@@H](C)[C@H](C)O)[C@@H](O)[C@H]1O [Pseudomonic acid]
fitness, [1]
Conditions | first compound 0.1725 µg/mL | first compound 0.2 µg/mL | first compound 0.345 µg/mL | first compound 0.4 µg/mL | first compound 0.69 µg/mL | first compound 0.8 µg/mL
partner 0.03 µg/mL | 0.875 | 0.899 | 0.856 | 0.882 | 0.598 | 0.647
partner 0.06 µg/mL | 0.822 | 0.752 | 0.781 | 0.766 | 0.541 | 0.687
partner 0.12 µg/mL | 0.57 | 0.573 | 0.524 | 0.599 | 0.376 | 0.519

Conditions | Bliss interaction score
[2] | 0.0468
[3] | 0.0199
[4] | 0.0974
[5] | 0.0537

C[C@H]1COc2c(N3CCN(C)CC3)c(F)cc3c(=O)c(C(=O)O)cn1c23 [Levofloxacin] + CN[C@H](CC(C)C)C(=O)N[C@H]1C(=O)N[C@@H](CC(N)=O)C(=O)N[C@H]2C(=O)N[C@H]3C(=O)N[C@H](C(=O)N[C@H](C(=O)O)c4cc(O)cc(O)c4-c4cc3ccc4O)[C@H](O)c3ccc(c(Cl)c3)Oc3cc2cc(c3O[C@@H]2O[C@H](CO)[C@@H](O)[C@H](O)[C@H]2O[C@H]2C[C@](C)(N)[C@H](O)[C@H](C)O2)Oc2ccc(cc2Cl)[C@H]1O [Vancomycin]
fitness, [1]
Conditions | first compound 0.1725 µg/mL | first compound 0.2 µg/mL | first compound 0.345 µg/mL | first compound 0.4 µg/mL | first compound 0.69 µg/mL | first compound 0.8 µg/mL
partner 0.03125 µg/mL | – | 0.931 | – | 0.834 | – | 0.365
partner 0.0625 µg/mL | – | 0.893 | – | 0.812 | – | 0.436
partner 0.125 µg/mL | 0.857 | 0.704 | 0.818 | 0.605 | – | 0.292
partner 0.25 µg/mL | – | – | – | – | 0.213 | –
partner 0.5 µg/mL | 0.0371 | – | 0.0522 | – | 0.0787 | –

Conditions | Bliss interaction score
[2] | 0.0448
[3] | -0.0494
[4] | -0.1
[5] | -0.0425

C[C@H]1COc2c(N3CCN(C)CC3)c(F)cc3c(=O)c(C(=O)O)cn1c23 [Levofloxacin] + CO[C@H]1/C=C/O[C@@]2(C)Oc3c(C)c(O)c4c(O)c(c(/C=N/N5CCN(C)CC5)c(O)c4c3C2=O)NC(=O)/C(C)=C\C=C\[C@H](C)[C@H](O)[C@@H](C)[C@@H](O)[C@@H](C)[C@H](OC(C)=O)[C@@H]1C [Rifampicin]
fitness, [1]
Conditions | first compound 0.1725 µg/mL | first compound 0.345 µg/mL | first compound 0.4 µg/mL | first compound 0.69 µg/mL | first compound 0.8 µg/mL
partner 0.05 µg/mL | 0.902 | 0.848 | 0.724 | 0.611 | 0.665
partner 0.2 µg/mL | 0.356 | – | – | 0.288 | –

fitness, [1], one replicate
Conditions | first compound 0.2 µg/mL | first compound 0.4 µg/mL | first compound 0.8 µg/mL
partner 0.025 µg/mL | 0.843 | 0.805 | 0.725
partner 0.2 µg/mL | 0 | 0 | 0

Conditions | Bliss interaction score
[2] | 0.0398
[3] | 0.0251
[4] | 0.11
[5] | 0.0412

C[C@H]1COc2c(N3CCN(C)CC3)c(F)cc3c(=O)c(C(=O)O)cn1c23 [Levofloxacin] + Clc1ccc(COC(Cn2ccnc2)c2ccc(Cl)cc2Cl)c(Cl)c1 [Miconazole]
[1]
Conditions | fitness
first compound 0.1725 µg/mL, partner 1.25 µg/mL | 0.955
first compound 0.1725 µg/mL, partner 2.5 µg/mL | 0.976
first compound 0.1725 µg/mL, partner 5 µg/mL | 0.963
first compound 0.2 µg/mL, partner 1.073 µg/mL | ≥ 1
first compound 0.2 µg/mL, partner 2.145 µg/mL | ≥ 1
first compound 0.2 µg/mL, partner 4.29 µg/mL | 0.978
first compound 0.345 µg/mL, partner 1.25 µg/mL | 0.866
first compound 0.345 µg/mL, partner 2.5 µg/mL | 0.856
first compound 0.345 µg/mL, partner 5 µg/mL | 0.859
first compound 0.4 µg/mL, partner 1.073 µg/mL | 0.934
first compound 0.4 µg/mL, partner 2.145 µg/mL | 0.941
first compound 0.4 µg/mL, partner 4.29 µg/mL | 0.825
first compound 0.69 µg/mL, partner 1.25 µg/mL | 0.576
first compound 0.69 µg/mL, partner 2.5 µg/mL | 0.432
first compound 0.69 µg/mL, partner 5 µg/mL | 0.578
first compound 0.8 µg/mL, partner 4.29 µg/mL | 0.769

Conditions | Bliss interaction score
[2] | 0.0649
[3] | -0.0265
[4] | 0.11
[5] | 0.0464

C[C@H]1COc2c(N3CCN(C)CC3)c(F)cc3c(=O)c(C(=O)O)cn1c23 [Levofloxacin] + Cn1nnc(-c2ccc(-c3ccc(N4C[C@H](CO)OC4=O)cc3F)cn2)n1 [Tedizolid]
fitness, [1]
Conditions | first compound 0.1725 µg/mL | first compound 0.2 µg/mL | first compound 0.345 µg/mL | first compound 0.4 µg/mL | first compound 0.69 µg/mL | first compound 0.8 µg/mL
partner 0.03125 µg/mL | – | 0.921 | – | 0.855 | – | 0.629
partner 0.0625 µg/mL | – | 0.94 | – | 0.878 | – | 0.731
partner 0.125 µg/mL | 0.758 | 0.768 | 0.703 | 0.731 | 0.433 | 0.608
partner 0.25 µg/mL | 0.826 | – | 0.757 | – | 0.401 | –
partner 0.5 µg/mL | 0.243 | – | 0.203 | – | 0.189 | –

Conditions | Bliss interaction score
[2] | 0.0224
[3] | 0.0821
[4] | -0.126
[5] | 0.057

C[C@H]1COc2c(N3CCN(C)CC3)c(F)cc3c(=O)c(C(=O)O)cn1c23 [Levofloxacin] + O=C1CN(/N=C/c2ccc([N+](=O)[O-])o2)C(=O)N1 [Nitrofurantoin]
fitness, [1]
Conditions | first compound 0.1725 µg/mL | first compound 0.2 µg/mL | first compound 0.345 µg/mL | first compound 0.4 µg/mL | first compound 0.69 µg/mL | first compound 0.8 µg/mL
partner 1.285 µg/mL | – | 0.894 | – | 0.842 | – | 0.558
partner 2 µg/mL | 0.921 | – | 0.852 | – | 0.568 | –
partner 2.57 µg/mL | – | 0.909 | – | 0.865 | – | 0.524
partner 4 µg/mL | 0.92 | – | 0.797 | – | 0.535 | –
partner 8 µg/mL | 0.799 | – | 0.688 | – | 0.38 | –

[1], partner 5.14 µg/mL, one replicate
Conditions | fitness
first compound 0.2 µg/mL | 0.86
first compound 0.4 µg/mL | 0.75
first compound 0.8 µg/mL | 0.317

Conditions | Bliss interaction score
[2] | 0.0577
[3] | 0.027
[4] | -0.0691
[5] | -0.0599
